Where two headings read alike, the source gives them in different places.
Key:
[1] = Cumulative excretion of ^14C in urine and faeces (mass balance); format: in vivo, human
Source text: This was a Phase 1, single-centre, open-label, non-controlled, mass balance and metabolite profiling study of ^14C-radiolabeled zalunfiban in health male volunteers (NCT04284995). The planned participant enrolment size was 8, with 2 additional alternate participants available on the morning of dosing. Following a 28-day screening period, all eligible participants were admitted to the research unit the evening before dosing. After fasting overnight, participants completed a standard breakfast prior to dosing on study day 1. After dosing, subjects fasted for 4 h. Fluids were permitted ad libitum starting 1-hour after dosing. […]
Whole blood samples were analysed using accelerator mass spectrometry (AMS). […] Each sample was counted for at least 10 min or until the 2%2σ terminator was reached. […] The CO2 produced was trapped in a Carbosorb/Permafluor 2:1 v/v (Perkin Elmer, Waltham MA) to determine total carbon content and the ^14C:^12C ratio and then analysed by AMS.
A carbon content correction based upon pre-dose whole blood samples and urine samples was applied to all post dose samples. As the carbon content of homogenised faeces can be variable, all homogenised faeces samples were analysed by C,H,N using a Thermo Scientific FlashSmart elemental analyser (Waltham, MA). Urea standards were used to calibrate and normalise the C,H,N, and the carbon content of each sample was determined. […]

[2] = Whole blood zalunfiban and M1 concentrations (LC-MS/MS) and non-compartmental PK, phase 1 mass balance study; format: in vivo, human; conditions: for Cmax / Tmax / AUC(0-inf) / AUC(0-t) / k el / Vd/F / half-life: male, human, whole blood; for AUC(0-inf): read-out: AUC0-inf, whole blood zalunfiban; for AUC(0-t): read-out: AUC0-last, whole blood zalunfiban; for k el: read-out: Kel, whole blood zalunfiban (converted); for Vd/F: read-out: Vz/F, whole blood zalunfiban; for half-life: read-out: t1/2, whole blood zalunfiban (converted)
Source text: This was a Phase 1, single-centre, open-label, non-controlled, mass balance and metabolite profiling study of ^14C-radiolabeled zalunfiban in health male volunteers (NCT04284995). The planned participant enrolment size was 8, with 2 additional alternate participants available on the morning of dosing. Following a 28-day screening period, all eligible participants were admitted to the research unit the evening before dosing. After fasting overnight, participants completed a standard breakfast prior to dosing on study day 1. After dosing, subjects fasted for 4 h. Fluids were permitted ad libitum starting 1-hour after dosing. The investigational product (IP) was injected SC on study day 1 and participants were housed for 11 days, which is past the final 240-hour sampling time, and then discharged following final evaluation. The clinical study was conducted at the Pharmaron Clinical Pharmacology Centre (Baltimore, MD) and the study protocol, consent forms and regulatory documents were reviewed and approved by the Advarra Institutional Review Board (Columbia, MD).
All participants received the same fixed mass dose of SC 9.5 mg ^14C-zalunfiban (5 μCi), in 0.5 mL of formulation solution. This zalunfiban dose was chosen to both ensure participant safety and to make certain the study results were clinically relevant. For the latter, by strict inclusion of participants with a body weight within the range of 73–99 kg, the zalunfiban doses were no higher than the highest administered in the currently ongoing Phase 3 study, which includes three groups of 0.110 mg/kg zalunfiban, 0.130 mg/kg zalunfiban, and placebo ([NIH 2025]). The ^14C radiolabel dose of 5 μCi presented minimal radiation risk to healthy subjects while providing a high likelihood of meeting the study objectives.
Serial blood samples were collected to determine zalunfiban and its major metabolite des-gly-zalunfiban (M1) whole blood concentrations, additional whole blood metabolite profiling, and total whole blood ^14C at pre dose (−60 min); 5, 10, 15, 30 and 45 min; and 1, 1.5, 2, 2.5, 3, 4, 6, 8, 12, 16, 24, 36, 48, 72, 96, 120, 144, 168, 192, 216 and 240 h after dosing. Blood samples were taken via an indwelling IV catheter or by direct venipuncture into designated blood collection tubes, with K2 EDTA used as an anticoagulant. Study samples were diluted immediately after blood collection, at a ratio of 1:4 using prechilled 30% acetonitrile, then separated into storage tubes and immediately frozen at −80°C for shipment to the analytical laboratory. At the laboratory, extraction of ^14C-zalunfiban from whole blood was achieved by repeated microcentrifugation, vortex mixing, and harvesting to collect analytes (see Metabolite profiling and excretion for more details).
Zalunfiban and M1 whole blood concentrations were measured using a validated LC-MS/MS method in compliance with the ICH-M10 guideline. The method utilised a Sciex 5500 mass spectrometer, Shimadzu LC30AD HPLC system, and a Shimadzu AD multiplate autosampler. Mobile phase A (MPA) was 10 mM ammonium acetate with 0.1% ammonium hydroxide and mobile phase B (MPB) was 10 mM ammonium acetate with acetonitrile:ammonium hydroxide. An Acquity UPLC BEH Hilic 1.7 micrometer column (Waters Corporation) was used at a temperature of 50 °C. The column flow rate was 0.4 mL/min and injection volumes were 2.0 microliters. The gradient for analytical pumps was set at 30% MAP and 70% MPB.
For whole blood LC-MS/MS the calibration ranges were 5.00–500.00 ng/mL for zalunfiban and 25.00–2500.00 ng/mL for M1. Zalunfiban and M1 sample concentrations below 5 ng/mL and 25 ng/mL, respectively, were reported as below the lower limit of quantification (<LLOQ).
Zalunfiban and whole blood radioactivity concentrations were used to calculate PK parameters using standard non-compartmental analysis (NCA) methods using Phoenix WinNonlin software (Phoenix, Princeton, NJ). […]

[3] = geometric mean, n=8, single SC 9.5 mg
[4] = sc, 9.5 mg, geometric mean, n=8, single SC 9.5 mg
[5] = sc, 9.5 mg, mean, n=8, single SC 9.5 mg
[6] = sc, 9.5 mg, median, n=8, single SC 9.5 mg

NCC(=O)Nc1cncc(-c2nn3c(=O)cc(N4CCNCC4)nc3s2)c1 [Zalunfiban, 2-amino-N-{5-[5-oxo-7-(piperazin-1-yl)-5H-[1,3,4]thia-diazolo[3,2-a]pyrimidin-2-yl]pyridin-3-yl}acetamide]
Radioactivity recovered in urine and faeces ([1]; by 48 h, on average): more than 80% | Cumulative percentage of recovered ^14C (urine plus faeces) ([1]; by 240 h post-dose, range over participants, listed as 14C-zalunfiban): > 90% | Time of last measurable whole blood zalunfiban concentration ([2]; all participants): ≤ 4 h | CL/F, whole blood zalunfiban [2, 3]: 80.7 L/h | tlast, whole blood zalunfiban [2, 3]: 3.4 h | Cmax [2, 4]: 94.6 ng/mL | Tmax [2, 4]: 15 min | AUC(0-inf) [2, 4]: 116 ng·h/mL | AUC(0-t) [2, 4]: 107 ng·h/mL | k el [2, 4]: 0.00021 s⁻¹ | Vd/F [2, 4]: 107 L | half-life [2, 4]: 55.2 min | half-life ([2]; sc, 9.5 mg, mean terminal half-life, n=8, single SC 9.5 mg): ~60 min | Tmax [2, 5]: 15.6 min | Cmax ([2]; sc, 9.5 mg, mean, n=8, single SC 9.5 mg ^14C-zalunfiban): 95.2 ng/mL | AUC(0-inf) [2, 5]: 118 ng·h/mL | AUC(0-t) [2, 5]: 109 ng·h/mL | k el [2, 5]: 0.000218 s⁻¹ | Vd/F [2, 5]: 114 L | Cmax [2, 6]: 96.9 ng/mL | Tmax [2, 6]: ~15 min | AUC(0-inf) [2, 6]: 123 ng·h/mL | AUC(0-t) [2, 6]: 114 ng·h/mL | k el [2, 6]: 0.000229 s⁻¹ | half-life [2, 6]: 50.4 min | Tmax ([2]; subcutaneous, 9.5 mg, median): 15 min | Vd/F ([2]; median, n=8, single SC 9.5 mg): 96.6 L | CL/F, whole blood zalunfiban ([2]; mean, n=8, single SC 9.5 mg): 81.8 L/h | tlast, whole blood zalunfiban ([2]; mean, n=8, single SC 9.5 mg): 3.4 h | CL/F, whole blood zalunfiban ([2]; median, n=8, single SC 9.5 mg): 76.3 L/h | tlast, whole blood zalunfiban ([2]; median, n=8, single SC 9.5 mg): 3.5 h
